“And” between values parts separate entries of the source, which are not always exact repeats. Identical values can stand only once.
Tests used:
MCF-7/Adr cells = test: MTT cytotoxicity assay and MDR reversal in multidrug-resistant MCF-7/Adr cells; format: cell-based; settings: for resistant index (RI): MCF-7/Adr vs MCF-7; for IC50: Homo sapiens, NCI/ADR-RES, MCF-7/Adr, DOX concentration
Protocol: The sensitive MCF-7 and multidrug-resistant MCF-7/Adr cells were obtained from Nanjing Kaiji Biotech. Ltd. Co. (Jiangsu, China). Cells were cultured in RPMI-1640 medium containing 10% (v/v) FBS and 1% penicillin–streptomycin at 37 °C with 5% CO2. Additionally, MCF-7/Adr cells were incubated in medium with 1 μg/mL DOX.
The cytotoxicity of various formulations against MCF-7 and MCF-7/Adr cells was assessed by MTT assay. Briefly, MCF-7 and MCF-7/Adr cells were seeded in 96-well plates at a density of 5 × 10^4 cells/well/0.1 mL 1640 culture medium and cultured for 24 h. Then, the cells were treated with DOX-Sol, DOX + Cur, HA-PMs, TPGS2k-PMs and HA/TPGS2k-PMs with multiple concentrations of DOX for 48 and 72 h, respectively. The cells incubated with medium only were utilized as control. At time interval, 20 μL MTT (5 mg/mL) was added and incubated for another 4 h. After that, the medium of each well was discarded and added 200 μL DMSO. The absorbance of each well was measured at 570 nm using a microplate reader. Half-maximal inhibitory concentration (IC50), the resistant index (RI) and reversal factor (RF) were calculated and used to evaluate MDR reversal effects by micelles(Ling et al., [2010]; Wang et al., [2012]).

[1] = In vivo pharmacokinetics after intravenous injection; settings: rat, i.v., DOX 5 mg/kg and Cur 5 mg/kg, analyte DOX
Protocol: Male Sprague–Dawley rats were randomly assigned to five groups (five rats per group). DOX-Sol, DOX + Cur, TPGS2k-PMs, HA-PMs and HA/TPGS2k-PMs were injected intravenously with at the dose of 5 mg/kg DOX and 5 mg/kg Cur, respectively. About 300 μL of blood samples were collected from the orbital venous plexus and immediately centrifuged to obtain the plasma fraction. Plasma samples were extracted through methanol protein precipitation method before analyzed by LC–MS/MS system.

4T1-bearing Balb/C mice = test: In vivo biodistribution in tumor-bearing mice; settings: 4T1-bearing mice, 2 h after i.v. 10 mg DOX/kg and 10 mg Cur/kg
Protocol: After 2 h administration, the mice were sacrificed, and the tumor, heart, liver, lung, and kidney were excised, weighed, homogenized in 0.5 mL methanol, centrifuged and analyzed by LC-MS/MS. Meanwhile, for qualitative analysis, the tumors were frozen in cryoembedding media (OCT) and sectioned at 20 μm. The sections were fixed with 4% paraformaldehyde for 10 min, stained for nuclei with DAPI, and observed by CLSM.

4T1 tumor-bearing mice [2] = test: In vivo antitumor efficacy, body weight and survival; set-up: species or system BALB/c mice; settings: 4T1-bearing mice, i.v. 10 mg/kg DOX
Protocol: The antitumor efficacy and safety in vivo were evaluated using 4T1 tumor-bearing mice. Briefly, 1 × 10^6 4T1 cells were subcutaneously injected into the right axilla of the female BALB/c mice. […] Body weights and tumor volumes (V = ab^2/2, where a was major axis and b was minor axis measured by slide caliper) were measured every two days after administration. At the end of the experiment, mice were sacrificed, and then the tumors were excised, weighted and photographed.

4T1 tumor-bearing mice [3] = test: Serum CK, CKMB, LDH and AST (organ toxicity) by ELISA kit; format: in vivo, BALB/c mice; settings: 4T1-bearing mice, end of experiment; DOX-Sol vs saline, others vs DOX-Sol
Protocol: The toxicity of DOX formulations in vivo were evaluated by enzyme-linked immunosorbent assay (ELISA) kit. At the end of the experiment, the blood of each mouse was extracted by eyeballs and the serum was separated. Then, the activities of creatine kinase (CK), creatine kinase MB (CKMB), lactate dehydrogenase (LDH) and aspartate transaminase (AST) in serum were evaluated to investigate the organ toxicity.

COc1cccc2c1C(=O)c1c(O)c3c(c(O)c1C2=O)C[C@@](O)(C(=O)CO)C[C@@H]3O[C@H]1C[C@H](N)[C@H](O)[C@H](C)O1 [DOX-Sol, Doxorubicin]
resistant index (RI) (MCF-7/Adr cells; 48h, listed as DOX): 142 and 142.01
resistant index (RI) (MCF-7/Adr cells; 72h): 89.82
IC50 (MCF-7/Adr cells; 48h): 106 µg/mL
IC50 (MCF-7/Adr cells; 72h): 45.8 µg/mL
V of DOX [1]: 0.03 ± 0.02 L/kg
DOX accumulation in tumor (4T1-bearing Balb/C mice): low DOX accumulation
death of mice during treatment (4T1 tumor-bearing mice [2]; 10 mice per group): five mice suddenly died after nine days treatment
body weight change (4T1 tumor-bearing mice [2]): markedly decreased
values of CKMB, CK, LDH and AST in serum (4T1 tumor-bearing mice [3]): significantly higher than those in saline-treated groups

— paper PMC6058673, “Comparison of hyaluronic acid-based micelles and polyethylene glycol-based micelles on reversal of multidrug resistance and enhanced anticancer efficacy in vitro and in vivo” (Drug Delivery, 2018)
